Patent US20160015725A1, “METHODS OF CONTROLLING TUMOR BIOENERGETICS NETWORKS” (THE WISTAR INSTITUTE OF ANATOMY AND BIOLOGY, priority 2012, published 2016)

Legend:
[1] = tested on: NIH3T3 fibroblasts; assay: ATP production and AMPK/mTORC1 phosphorylation in non-transformed cells; format: cell-based
Procedure: (§1) For Western blotting, protein lysates were prepared from the different cell types in RIPA Buffer (150 mM NaCl, 1.0% Triton X-100, 0.5% sodium deoxycholate, 0.1% SDS, 50 mM Tris, pH 8.0) containing EDTA-free Protease Inhibitor Cocktail (Roche) and Phosphatase Inhibitor Cocktail 2 and 3 (Sigma Aldrich). Equal amounts of protein lysates were separated by SDS gel electrophoresis, transferred to PVDF membranes and incubated with primary antibodies of various specificities. Protein bands were detected by chemiluminescence.
(§2) Intracellular ATP concentrations were measured by the luciferin—luciferase method using an ATP measuring kit (Biochain). The ATP concentration in each extract was measured with a microplate luminometer (Beckman Coulter) against standard ATP solutions used as reference. In some experiments, PC3 or LN229 cells were preincubated with sodium pyruvate for 7 h in the presence of vehicle or Gamitrinib before determination of ATP production.

[2] = tested on: mutant BRAF melanoma cells; assay: 3D organotypic spheroids, mutant BRAF; format: cell-based, human; conditions: collagen-embedded, 72 h
Procedure: (§3) For analysis of tumor cell survival in 3D organotypic cultures, melanoma spheroids were prepared as previously described. Briefly, 50 μl aliquots of the various melanoma cell types (5×10^4 cells/ml) were seeded onto 96-well plates coated with 1.5% agar (Difco, Sparks, Md.) in PBS. Spheroids were allowed to form for 72 h and then embedded in 100 μl of bovine collagen type I (Organogenesis, Canton, Mass.). Spheroids were overlaid with 100 μl of Tu2% growth medium and treated with inhibitors for 72 hours. Quantification of live vs. dead cells under the various conditions tested was performed by staining the melanoma spheroids after 72 h of treatment with calcein-AM (live) and Topro-3 (dead) (Invitrogen) for 1 h (data not shown).

[3] = tested on: LN229 cells; assay: Apoptosis by annexin V / PI flow cytometry; format: cell-based, human; conditions: HK-II silenced cells vs control transfectants
Procedure: (§4) Various cell types were seeded in triplicate onto 96-well plates at 4×10^3 cells/well, treated with vehicle, Gamitrinib or 17-AAG (0-20 μM) for 12 h, and analyzed for changes in metabolic activity by an MTT assay. For determination of apoptosis, LN229 cells ([…]) were labeled for annexin V and propidium iodide (PI) (BD Biosciences), and analyzed by multiparametric flow cytometry (BD).

[4] = tested on: multiple tumor cell types; assay: ATP production in tumor cells (luciferin-luciferase); format: cell-based, human
Procedure: as §2

[5] = tested on: WT BRAF spheroids; assay: 3D organotypic spheroids, WT BRAF; format: cell-based, human; conditions: collagen-embedded, 72 h
Procedure: as §3

[6] = tested on: FF2508 or MRC5 normal primary human fibroblasts; assay: ATP production in normal fibroblasts; format: cell-based
Procedure: as §2

[7] = tested on: BRAF WT melanoma cells; assay: Melanoma cell viability by MTT, BRAF WT; format: cell-based, human
Procedure: as §4

[8] = tested on: LN229 cells; assay: Cell viability by MTT; format: cell-based, human; conditions: Gamitrinib combined with 2-DG vs each agent alone
Procedure: as §4

[9] = tested on: WT BRAF melanoma cells; assay: AMPK and autophagy signaling in WT BRAF melanoma cells; format: cell-based, human
Text: Human glioblastoma LN229, prostate adenocarcinoma PC3 or LNCaP cells, or normal NIH3T3 fibroblasts were obtained from the American Tissue Culture Collection (ATCC, Manassas, Va.), and maintained in culture according to the supplier's specifications. The following wild type (WT) BRAF N-Ras mutant melanoma cells WM852 and WM1366, and melanoma cells carrying a V600E activating mutation in the BRAF oncogene, 451Lu, Me11617 and WM983B were used in this study. WT or CypD knockout Mouse Embryonic Fibroblasts (MEFs, CypD−/−) were characterized earlier 40. In some experiments, CypD−/− MEFs were stably transfected with control plasmid, WT CypD or peptidyl prolyl isomerase (PPIase)-deficient H168Q CypD mutant cDNA, and analyzed for differential recruitment of HK-II to mitochondrial or cytosolic fractions.
as §1
Samples were imaged using a Leica TCS SP2 confocal microscope. For determination of autophagy, cells under the various conditions tested were harvested after 12 h, and analyzed with an antibody to […] (LC3) by Western blotting.

[10] = tested on: tumor cells; assay: ER UPR markers (Western blotting, Xbp1 splicing, RT-qPCR); format: cell-based, human
[11] = tested on: mTORC1; assay: mTORC1 signaling in tumor cells, Western blotting; format: cell-based, human
[12] = tested on: LN229 cells; assay: Extracellular lactate; format: cell-based, human; conditions: tumor cells
Procedure: Glucose concentrations in cell culture media were determined using a Glucose kit (Sigma-Aldrich). Briefly, 2×10^6 cells were seeded in 10 cm2 tissue culture dishes for 48 h, mixed with DMEM in the presence of Gamitrinib or 17-AAG (0-20 μM) for additional 4 h, and 200 μl aliquots of culture medium were incubated with 1 ml assay mixture, containing 1.5 mM NAD, 1 mM ATP, 1.0 U/ml Hexokinase, and 1.0 U/ml G6PDH. The glucose concentration under the various conditions was determined by measuring the amount of reduced NAD to NADH by G6PDH, and quantified spectrophotometrically at 340 nm wavelength. Extracellular lactate was measured by a colorometric assay kit (Abcam). Culture media from LN229 cells was replaced with DMEM containing vehicle (DMSO) or Gamitrinib (5 μM) for 5 h. Changes in lactate concentrations were measured by analysis of lactate-dependent conversion of NADP to NADPH in the presence of excess lactate dehydrogenase (LDH), and quantified by absorbance at 450 nm. All assays were performed at 25° C. under conditions of linear lactate-limited NADPH formation.

[13] = tested on: AMP-activated kinase (AMPK); assay: AMPK phosphorylation in tumor cells, Western blotting; format: cell-based, human

With CO[C@H]1/C=C\C=C(/C)C(=O)NC2=CC(=O)C(NCCCCCC[P+](c3ccccc3)(c3ccccc3)c3ccccc3)=C(C[C@@H](C)C[C@H](OC)[C@H](O)[C@@H](C)/C=C(\C)[C@@H]1OC(N)=O)C2=O [Gamitrinib] the “ATP production, AMPK or mTORC1 phosphorylation” value [1] was “did not affect ATP production, or AMPK or mTORC1 phosphorylation”, the “cell killing in 3D spheroids” value [2] was “efficiently killed” and the “concentrations that killed cells in 3D spheroids” value [2] was 1 to 3 µM. For the same compound, the “Annexin V labeling” value [3] was “increased Annexin V labeling”, the “time to inhibition of ATP production” value ([4]; multiple tumor cell types) was no more than 5 h and the ATP production ([4]; tumor cell types, non-cytotoxic concentrations, 5 h) was “concentration-dependent inhibition of ATP production”. For the same compound, the “cell death in 3D spheroids” value [5] was “resistant to cell death”, the ATP production [6] was “did not change ATP production” and the IC50 [7] was 6 ± 1.4 µM. For the same compound, the “tumor cell killing, combined with 2-DG” value [8] was “increased tumor cell killing”, the autophagy ([9]; WT BRAF cells) was “stimulated autophagy” and the AMPK phosphorylation ([9]; WT BRAF melanoma cells) was “induced AMPK phosphorylation”. The “Grp78, CHOP or C/EBPβ expression, combined with 2-DG” value ([10]; Gamitrinib combined with 2-DG) was “translational suppression of Grp78, CHOP or C/EBPβ”, the “mRNA expression of CHOP, C/EBPβ and Grp78” value ([10]; quantitative PCR) was “time-dependent upregulation of ER UPR markers, CHOP, C/EBPβ and Grp78” and the “C/EBPβ and CHOP expression” value ([10]; tumor cells) was “induction of transcription factors, CCAAT-enhancer binding protein (C/EBPβ) and C/EBP homology protein (CHOP)”. For the same compound, the Grp78 expression ([10]; tumor cells) was “upregulation of the ER chaperone, Grp78”, the “Xbp1 mRNA splicing” value ([10]; tumor cells) was “de novo mRNA splicing, i.e. activation, of its target, X-Box Protein-1, Xbp1” and the eIF2α phosphorylation ([10]; tumor cells) was “transient phosphorylation of PERK-regulated eIF2α”. For the same compound, the “time to induction of ER UPR” value ([10]; tumor cells) was no more than 1 h, the IRE-1 expression ([10]; within 1 h) was “increased expression of Inositol-Requiring-1 (IRE-1) kinase” and the “phosphorylation of mTOR, 4EBP1 and p70S6 (mTORC1)” value [11] was “concentration dependent suppression of phosphorylation of mTOR, and its downstream kinases 4EBP1 and p70S6”. For the same compound, the extracellular lactate levels [12] was “reduced”, the “AMPK and eIF2α phosphorylation, combined with 2-DG” value ([13]; Gamitrinib combined with 2-DG) was “maximally stimulated AMPK and eIF2α phosphorylation” and the “AMPK phosphorylation, combination of metformin plus Gamitrinib” value ([13]; combination with metformin) was “did not further stimulate AMPK phosphorylation”. For the same compound, the “AMPK activation compared with metformin” value ([13]; tumor cells) was “more prominent than that induced by metformin”, the “AMPK activation remained sustained” value ([13]; tumor cells) was no less than 9 h and the AMPK phosphorylation ([13]; tumor cells) was “concentration dependent phosphorylation of AMP-activated kinase (AMPK)”. For the same compound, the “onset of AMPK activation” value ([13]; tumor cells) was no more than 30 min and the “total AMPK levels” value ([13]; tumor cells) was “not affected”.
